In patent US11013715B2, “Nanoemulsion hydrophobic substances” (Vertosa, Inc., priority 2018, dated 2021):
Like-named read-outs stand apart in the source and are kept apart here.

Legend:
[1] = cited from earlier work
[2] = Emulsion droplet average size by Dynamic Light Scattering; format: physicochemical; details: named Span as co-surfactant; 1 g cannabinoid, 0.625 g olive oil, 3.75 g Tween 80, Span:Tween 80 1:6; 45 mL; 80% amplitude sonication until plateau; DLS
Description: Droplet size change was monitored by DLS time wise.
Sometimes, measuring concentrated nano-emulsion (>10 mg/g) by Dynamic Light Scattering could have misleading data. Since at higher concentration, the emulsion droplets pack close to each other and may generate unreal scattering pattern. […] While the nanosized droplets are a preferred embodiment of the instant application, larger sized droplets are contemplated as well. Sometimes, larger size emulsion is generated by design to achieve desirable effects.
As is generally known in the art, droplet sizes and their distribution may affect the human feeling on flavor. On one side, nano-size can amplify or even alter the taste, something tastes plain at bulk may taste bitter or sour in nano-scale. On the other side, taste buds on tongue tend to have different time reactions to different sizes of particles. The smaller droplets can quickly absorb at the gap of the tasting buds, thus blocking the touching/feeling from bigger droplets. The droplet size can be well controlled by how much energy is put into the liquid system, which can be controlled either by amplitude % of the sonicator or by how long the liquid is being sonicated at certain amplitude %.
The sonicator continuously calibrates itself to ensure consistent output. A commercially available sonicator may be used to make the compositions disclosed herein. The wattage of such a sonicator may vary from 250 W to about 800 W, and more preferably between about 350 W to about 650 W, and most preferably between 450 W to about 550 W. The output energy depends on the viscosity of the emulsion and also temperature. […] Processing amplitude are adjustable, and it is within a linear relation with intensity. And process time can also be adjustable, which will determine total input energy under certain intensity. Since each formula may need different amount of energy to get into nanosize, we usually monitor droplet size change with Dynamic Light Scattering over production time to determine when to stop the sonication.
1 g of cannabis and 5 g of the Formula 1 are added to a 100 ml beaker, and mechanically stirred under controlled heat (<60° C.), until it is well mixed. The cannabis oil may be a full plant extract or a high pure distillate. Water is added to the mixture, the amount of water is determined by the final targeting concentration. The mixture is kept stirring until a homogenous milky coarse emulsion is formed.

[3] = Table 1, HLB=20*Mh/M, scale 0 to 20
[4] = Span surfactants, Example 9 table

Row | Substance | HLB [1, 3] | Final Emulsion droplet average size (nm) [2] [nm] | HLB [1, 4]
1 | Polyglyceryl-6 Stearate | 9 | – | –
2 | Span 20 | – | 91 | –
3 | Span 40 | – | 245 | 6.7
4 | Span 60 | – | 316 | 4.7
5 | Span 80 | – | 387 | 4.3
6 | Span 83 | – | 560 | –
7 | Span 85 | – | 876 | –
8 | Span 120 | – | 302 | 4.7
9 | Tween 81 | 10 | – | –
10 | polyglyceryl-6 oleate | 9 | – | –
